Laboratory results: publication PMC10849125 (RSC Chemical Biology, 2023)

Tests used:
[1] = target: HR1–HR2 interaction (MBP-HR1 / ALP-HR2) of SARS-CoV-2 (Severe acute respiratory syndrome coronavirus 2, UniProt P0DTC2); assay: SPICA: inhibition of the HR1–HR2 interaction; format: binding; settings: for inhibition of the HR1–HR2 interaction of SARS-CoV-2 (in words): negative controls; for IC50: pIC50 ± SD, 20 nM MBP-HR1 coated, 5 nM ALP-HR2, MES pH 6.4, OD630, SD
VeroE6/TMPRSS2 cells = assay: Cytotoxicity, MTT assay; format: cell-based, African green monkey; settings: mock cell viability, 3 days

| SMILES | inhibition of the HR1–HR2 interaction of SARS-CoV-2 (in words) [1] | IC50 [1] | pCC50 ± SD (VeroE6/TMPRSS2 cells) |
| --- | --- | --- | --- |
| Cc1nnnn1N=Cc1ccc(O)c(C(c2ccc(O)cc2)c2cc(C=Nn3nnnc3C)ccc2O)c1 (centres unmarked) [VP-14637] | failed to block the HR1–HR2 interaction | 25.1 µM |  |
| CCC(CC)COC(=O)[C@H](C)N[P@](=O)(OC[C@H]1O[C@@](C#N)(c2ccc3c(N)ncnn23)[C@H](O)[C@@H]1O)Oc1ccccc1 [remdesivir] | no inhibitory effect |  | 4.2 ± 0.1 |
| CC[C@H](C)[C@H](NC(=O)[C@H](C)NC(=O)[C@H](CCC(=O)O)NC(=O)[C@H](CCC(=O)O)NC(=O)[C@H](CC(C)C)NC(=O)[C@H](CCCCN)NC(=O)[C@H](CCCCN)NC(=O)[C@H](CCSC)NC(=O)[C@H](CCC(=O)O)NC(=O)[C@H](Cc1ccc(O)cc1)NC(=O)[C@H](CCC(=O)O)NC(=O)[C@H](CC(C)C)NC(=O)[C@H](CC(=O)O)NC(=O)[C@H](CC(C)C)NC(=O)[C@H](Cc1ccccc1)NC(=O)[C@@H](NC(=O)[C@@H](NC(=O)[C@H](CC(N)=O)NC(=O)[C@@H](NC(=O)[C@H](CCC(N)=O)NC(=O)[C@H](CC(=O)O)NC(=O)[C@H](CC(C)C)NC(=O)[C@@H](N)CO)[C@@H](C)CC)C(C)C)[C@@H](C)O)C(=O)N[C@@H](CCCCN)C(=O)N[C@@H](CCCCN)C(=O)N[C@@H](CC(C)C)C(=O)N[C@@H](CCC(=O)O)C(=O)N[C@@H](CCC(=O)O)C(=O)N[C@@H](CO)C(=O)N[C@@H](Cc1ccc(O)cc1)C(=O)N[C@H](C(=O)N[C@@H](CC(=O)O)C(=O)N[C@@H](CC(C)C)C(=O)N[C@@H](CCCCN)C(=O)N[C@@H](CCC(=O)O)C(=O)N[C@@H](CC(C)C)C(=O)O)[C@@H](C)CC [EK1] |  | 0.001 µM |  |
